Laboratory results as given in the NIST ThermoML archive (doi:10.1016/j.jct.2016.12.032).

Assay: xn = mol fraction of the nth substance listed
Settings: 100 kPa, Liquid; for viscosity: Capillary tube (Ostwald / Ubbelohde) method; for mass density: Vibrating tube method

CC1CCC(=O)O1 (stereo unspecified) [γ-valerolactone] + CCCC[n+]1ccn(C)c1.O=S(=O)([N-]S(=O)(=O)C(F)(F)F)C(F)(F)F
Settings | mass density [kg/m3] | viscosity [mPa·s]
293.15 K, x2 = 0 | 1053.99 | 1.99
293.15 K, x2 = 0.0505 | 1108.43 | 2.51
293.15 K, x2 = 0.1001 | 1153.24 | 3.21
293.15 K, x2 = 0.1492 | 1191.45 | 4.28
293.15 K, x2 = 0.1998 | 1223.25 | 5.6
293.15 K, x2 = 0.3008 | 1274.04 | 8.84
293.15 K, x2 = 0.4031 | 1317.29 | 13.88
293.15 K, x2 = 0.5048 | 1347.03 | 19.18
293.15 K, x2 = 0.6031 | 1373.16 | 25.88
293.15 K, x2 = 0.6973 | 1393.96 | 33.12
293.15 K, x2 = 0.7994 | 1413.3 | 42.31
293.15 K, x2 = 0.8711 | 1426.6 | 50.45
298.15 K, x2 = 0 | 1049.28 | 1.82
298.15 K, x2 = 0.0505 | 1103.66 | 2.21
298.15 K, x2 = 0.1001 | 1148.42 | 2.76
298.15 K, x2 = 0.1492 | 1186.58 | 3.57
298.15 K, x2 = 0.1998 | 1218.36 | 4.71
298.15 K, x2 = 0.3008 | 1269.12 | 7.2
298.15 K, x2 = 0.4031 | 1312.35 | 11.11
298.15 K, x2 = 0.5048 | 1342.1 | 15.34
298.15 K, x2 = 0.6031 | 1368.22 | 20.69
298.15 K, x2 = 0.6973 | 1389.01 | 26.55
298.15 K, x2 = 0.7994 | 1408.36 | 34.16
298.15 K, x2 = 0.8711 | 1421.67 | 40.79
303.15 K, x2 = 0 | 1044.58 | 1.67
303.15 K, x2 = 0.0505 | 1098.86 | 1.98
303.15 K, x2 = 0.1001 | 1143.54 | 2.45
303.15 K, x2 = 0.1492 | 1181.67 | 3.13
303.15 K, x2 = 0.1998 | 1213.42 | 4.03
303.15 K, x2 = 0.3008 | 1264.12 | 6.01
303.15 K, x2 = 0.4031 | 1307.33 | 9.11
303.15 K, x2 = 0.5048 | 1337.07 | 12.52
303.15 K, x2 = 0.6031 | 1363.16 | 17.18
303.15 K, x2 = 0.6973 | 1383.94 | 21.62
303.15 K, x2 = 0.7994 | 1403.29 | 27.85
303.15 K, x2 = 0.8711 | 1416.59 | 33.15
308.15 K, x2 = 0 | 1039.87 | 1.53
308.15 K, x2 = 0.0505 | 1094.09 | 1.81
308.15 K, x2 = 0.1001 | 1138.71 | 2.22
308.15 K, x2 = 0.1492 | 1176.8 | 2.79
308.15 K, x2 = 0.1998 | 1208.52 | 3.53
308.15 K, x2 = 0.3008 | 1259.2 | 5.16
308.15 K, x2 = 0.4031 | 1302.39 | 7.78
308.15 K, x2 = 0.5048 | 1332.11 | 10.6
308.15 K, x2 = 0.6031 | 1358.2 | 14.12
308.15 K, x2 = 0.6973 | 1378.98 | 17.97
308.15 K, x2 = 0.7994 | 1398.34 | 22.82
308.15 K, x2 = 0.8711 | 1411.63 | 27.09
313.15 K, x2 = 0 | 1035.16 | 1.42
313.15 K, x2 = 0.0505 | 1089.31 | 1.65
313.15 K, x2 = 0.1001 | 1133.87 | 2
313.15 K, x2 = 0.1492 | 1171.93 | 2.45
313.15 K, x2 = 0.1998 | 1203.61 | 3.17
313.15 K, x2 = 0.3008 | 1254.26 | 4.5
313.15 K, x2 = 0.4031 | 1297.42 | 6.65
313.15 K, x2 = 0.5048 | 1327.12 | 9.02
313.15 K, x2 = 0.6031 | 1353.2 | 12.05
313.15 K, x2 = 0.6973 | 1373.98 | 15.14
313.15 K, x2 = 0.7994 | 1393.33 | 19.14
313.15 K, x2 = 0.8711 | 1406.62 | 22.7
318.15 K, x2 = 0 | 1030.45 | 1.32
318.15 K, x2 = 0.0505 | 1084.53 | 1.52
318.15 K, x2 = 0.1001 | 1129.05 | 1.79
318.15 K, x2 = 0.1492 | 1167.06 | 2.22
318.15 K, x2 = 0.1998 | 1198.73 | 2.8
318.15 K, x2 = 0.3008 | 1249.35 | 4.03
318.15 K, x2 = 0.4031 | 1292.49 | 5.76
318.15 K, x2 = 0.5048 | 1322.17 | 7.84
318.15 K, x2 = 0.6031 | 1348.24 | 10.41
318.15 K, x2 = 0.6973 | 1369.02 | 12.96
318.15 K, x2 = 0.7994 | 1388.35 | 16.42
318.15 K, x2 = 0.8711 | 1401.62 | 19.25
323.15 K, x2 = 0 | 1025.74 | 1.23
323.15 K, x2 = 0.0505 | 1079.76 | 1.41
323.15 K, x2 = 0.1001 | 1124.22 | 1.66
323.15 K, x2 = 0.1492 | 1162.18 | 2.04
323.15 K, x2 = 0.1998 | 1193.83 | 2.49
323.15 K, x2 = 0.3008 | 1244.4 | 3.59
323.15 K, x2 = 0.4031 | 1287.51 | 5.19
323.15 K, x2 = 0.5048 | 1317.18 | 6.98
323.15 K, x2 = 0.6031 | 1343.25 | 9.22
323.15 K, x2 = 0.6973 | 1364.02 | 11.45
323.15 K, x2 = 0.7994 | 1383.35 | 14.32
323.15 K, x2 = 0.8711 | 1396.6 | 16.68

O=C1CCCCCO1 [6-hexanolactone] + CCCC[n+]1ccn(C)c1.O=S(=O)([N-]S(=O)(=O)C(F)(F)F)C(F)(F)F
Settings | mass density [kg/m3] | viscosity [mPa·s]
293.15 K, x2 = 0 | 1075.92 | 6.63
293.15 K, x2 = 0.05 | 1122.04 | 7.97
293.15 K, x2 = 0.1002 | 1161.48 | 9.67
293.15 K, x2 = 0.1505 | 1195.51 | 11.48
293.15 K, x2 = 0.1985 | 1223.86 | 13.4
293.15 K, x2 = 0.3001 | 1273.58 | 18.05
293.15 K, x2 = 0.3987 | 1311.9 | 23.25
293.15 K, x2 = 0.4903 | 1341.13 | 28.59
293.15 K, x2 = 0.6309 | 1377.36 | 37.38
293.15 K, x2 = 0.6988 | 1391.97 | 41.8
293.15 K, x2 = 0.8042 | 1411.81 | 48.8
293.15 K, x2 = 0.883 | 1424.76 | 54.08
298.15 K, x2 = 0 | 1071.67 | 5.76
298.15 K, x2 = 0.05 | 1117.68 | 6.87
298.15 K, x2 = 0.1002 | 1157.04 | 8.29
298.15 K, x2 = 0.1505 | 1191 | 9.78
298.15 K, x2 = 0.1985 | 1219.3 | 11.34
298.15 K, x2 = 0.3001 | 1268.92 | 15.14
298.15 K, x2 = 0.3987 | 1307.17 | 19.36
298.15 K, x2 = 0.4903 | 1336.35 | 23.66
298.15 K, x2 = 0.6309 | 1372.52 | 30.61
298.15 K, x2 = 0.6988 | 1387.11 | 34.05
298.15 K, x2 = 0.8042 | 1406.92 | 39.48
298.15 K, x2 = 0.883 | 1419.85 | 43.58
303.15 K, x2 = 0 | 1067.41 | 5.04
303.15 K, x2 = 0.05 | 1113.3 | 5.97
303.15 K, x2 = 0.1002 | 1152.56 | 7.18
303.15 K, x2 = 0.1505 | 1186.44 | 8.42
303.15 K, x2 = 0.1985 | 1214.67 | 9.71
303.15 K, x2 = 0.3001 | 1264.18 | 12.78
303.15 K, x2 = 0.3987 | 1302.35 | 16.15
303.15 K, x2 = 0.4903 | 1331.47 | 19.54
303.15 K, x2 = 0.6309 | 1367.57 | 25.2
303.15 K, x2 = 0.6988 | 1382.12 | 28.07
303.15 K, x2 = 0.8042 | 1401.89 | 32.58
303.15 K, x2 = 0.883 | 1414.8 | 36.02
308.15 K, x2 = 0 | 1063.15 | 4.44
308.15 K, x2 = 0.05 | 1108.94 | 5.22
308.15 K, x2 = 0.1002 | 1148.11 | 6.25
308.15 K, x2 = 0.1505 | 1181.92 | 7.26
308.15 K, x2 = 0.1985 | 1210.09 | 8.36
308.15 K, x2 = 0.3001 | 1259.51 | 10.91
308.15 K, x2 = 0.3987 | 1297.6 | 13.67
308.15 K, x2 = 0.4903 | 1326.67 | 16.42
308.15 K, x2 = 0.6309 | 1362.7 | 20.93
308.15 K, x2 = 0.6988 | 1377.23 | 23.21
308.15 K, x2 = 0.8042 | 1396.97 | 26.77
308.15 K, x2 = 0.883 | 1409.86 | 29.49
313.15 K, x2 = 0 | 1058.9 | 3.95
313.15 K, x2 = 0.05 | 1104.57 | 4.61
313.15 K, x2 = 0.1002 | 1143.65 | 5.5
313.15 K, x2 = 0.1505 | 1177.38 | 6.41
313.15 K, x2 = 0.1985 | 1205.49 | 7.35
313.15 K, x2 = 0.3001 | 1254.8 | 9.43
313.15 K, x2 = 0.3987 | 1292.82 | 11.71
313.15 K, x2 = 0.4903 | 1321.83 | 14.07
313.15 K, x2 = 0.6309 | 1357.8 | 17.79
313.15 K, x2 = 0.6988 | 1372.3 | 19.67
313.15 K, x2 = 0.8042 | 1392.01 | 22.59
313.15 K, x2 = 0.883 | 1404.86 | 24.85
318.15 K, x2 = 0 | 1054.65 | 3.53
318.15 K, x2 = 0.05 | 1100.22 | 4.07
318.15 K, x2 = 0.1002 | 1139.2 | 4.87
318.15 K, x2 = 0.1505 | 1172.86 | 5.67
318.15 K, x2 = 0.1985 | 1200.91 | 6.5
318.15 K, x2 = 0.3001 | 1250.12 | 8.31
318.15 K, x2 = 0.3987 | 1288.06 | 10.27
318.15 K, x2 = 0.4903 | 1317.02 | 12.18
318.15 K, x2 = 0.6309 | 1352.92 | 15.24
318.15 K, x2 = 0.6988 | 1367.39 | 16.82
318.15 K, x2 = 0.8042 | 1387.06 | 19.24
318.15 K, x2 = 0.883 | 1399.89 | 21.07
323.15 K, x2 = 0 | 1050.4 | 3.17
323.15 K, x2 = 0.05 | 1095.86 | 3.69
323.15 K, x2 = 0.1002 | 1134.75 | 4.36
323.15 K, x2 = 0.1505 | 1168.33 | 5.03
323.15 K, x2 = 0.1985 | 1196.32 | 5.73
323.15 K, x2 = 0.3001 | 1245.42 | 7.26
323.15 K, x2 = 0.3987 | 1283.28 | 8.9
323.15 K, x2 = 0.4903 | 1312.18 | 10.53
323.15 K, x2 = 0.6309 | 1348.01 | 13.14
323.15 K, x2 = 0.6988 | 1362.45 | 14.49
323.15 K, x2 = 0.8042 | 1382.08 | 16.64
323.15 K, x2 = 0.883 | 1394.89 | 18.26
